Laboratory results published in US7345065B2, “Methods and compositions for alleviating pain” (Allergan, Inc., priority 2002, dated 2008).

Key:
[1] = Plasma concentration by LC-MS/MS during and after minipump dosing; type: in vivo, rat; settings: 0.1 mg/kg/hour minipump for seven days
Method: To determine whether the persistent reversal of allodynia was due to the continued presence of drug in the animals, rats were treated for seven days using a subcutaneous osmotic minipump with 0.1 mg/kg/hour Compound 8. Plasma concentrations of Compound 8 were sampled on days 3, 6, 8, 10 and 14 following pump insertion and determined by liquid chromatography-mass spectrometry/mass spectrometry (LC-MS/MS).

[2] = test system: Sprague Dawley rats, normal and sensitized; assay: Rat model of irritable bowel syndrome (chronic visceral hypersensitivity), EMG response to colorectal distension; type: in vivo
Source text: A well-accepted model of chronic visceral hypersensitivity is described in Al-Chaer et al., Gastroenterology 119:1276-85 (2000). In brief, colons of neonatal male Sprague Dawley rats were sensitized by repeated inflation of a colonic balloon on postnatal days 8 to 21, with colonic balloons inflated to pressures ranging from 20-80 mm Hg. Three months later, the abdominal withdrawal reflex (AWR) response of the adult rats to graded colorectal distension (CRD) was quantified by electromyography (EMG) recording from the abdominal wall muscle. […] Each level of CRD was administered for 20 seconds every four minutes and repeated for a total of five times.
Groups of 8-10 normal and sensitized adult Sprague Dawley rats (approximately 3 months old) were implanted with subcutaneous minipumps to deliver either 50% DMSO or Compound 8 in 50% DMSO at a dose of 100 ug/kg/hr over a period of 7 days. The abdominal withdrawal reflex to a graded series of colorectal distensions (20, 40, 60, 80 mm Hg) was measured by abdominal EMG recording prior to pump implantation, on days 2 and 5 of the subcutaneous infusion, and 2 days, 1 week, 2 weeks, and 4 weeks after the pumps were removed.

[3] = test system: α-2B heterozygous (−/+) and homozygous (−/−) knockout mice; assay: Sulprostone sensitized pain (allodynia), α-2B knockout mice; type: in vivo, mouse; settings: intraperitoneal; heterozygous and homozygous α-2B knockout; clonidine 500 ug/kg, Compound 3 100 ug/kg
Chung model rats = assay: Chung rat nerve ligation model, tactile allodynia reversal (Von Frey); type: in vivo
Method: The Chung rat nerve ligation model is a well accepted model of peripheral neuropathic pain. In the Chung model, partial ligation of left spinal nerves L-5 and L-6 produces a long-lasting hypersensitivity to light touch on the affected left foot. The hypersensitivity is similar to pain experienced by humans with the neuropathic condition of causalgia (Kim and Chung, Pain 50:355-363 (1992)).
Chung rat surgeries of about 20 minutes duration were performed essentially as follows. Male Sprague-Dawley rats weighing 100 to 120 grams were anesthetized with isofluorane. After shaving and preparing the surgical site with betadine, an incision was made from thoracic vertebra XIII down toward the sacrum, and muscle separated from spinal vertebra (left side) at the L4-S2 levels. The L6 vertebra were located, and the transverse process carefully removed with a small rongeur to visually identify the L4-L6 spinal nerves. L5 and L6 spinal nerves were isolated and tightly ligated with 6-0 silk thread; the wound was sutured after complete hemostasis was confirmed. A small amount of antibiotic ointment was applied to the incised area before transferring the animals to a plastic recovery cage under a regulated heat-temperature lamp. Animals were not treated with any topical or local anesthetics post-operatively.
Assessment of pain in Chung model rats was performed by applying a light tactile stimulus (Von Frey hair) to the affected surgical paw as follows. A 50% pain threshold was established by applying the Von Frey hair in an up-and-down manner to the plantar surface of the surgical paw with just enough force to bend them. A positive response was recorded if the paw was withdrawn sharply. The 50% paw withdrawal threshold was determined using the method of Dixon et al., Ann. Rev. Pharmacol. Toxicol. 20:441-462 (1980). The post-drug threshold was compared to the pre-drug threshold, and the precent reversal of tactile sensitivity calculated based on a normal threshold of 15.1 grams. The results were expressed as % allodynia reversal, reflecting the percentage reversal of pain threshold relative to a normal rat (100%).
Chung surgeries were performed, and pain assessed as described above. Drugs administered via osmotic minipump were delivered as follows. ALZET (Cupertino, Calif.) minipumps (Model #1007D) were implanted subcutaneously on the rats' back between the shoulder blades. Pumps were filled with test solution prior to surgery, which was performed with aseptic procedures and sterilized surgical instruments. After anesthetization with isoflorane and midline incision between the shoulder blades through the muscle, a subcutaneous pocket was exposed. The minipump was inserted into the exposed pocket, before stapling the wounds closed and allowing animals to recover under a warming light.
ALZET osmotic minipumps (model 1007D) hold a total volume of 100 μl and delivered drug at the set rat of 0.5 μl per hour the indicated time period. Drugs were administered at the indicated rate, typically 100 μg/hr/kg, dissolved in 50% DMSO, with the concentration of drug in the pump varied depending on animal weight. […]

Bennett model rats = assay: Bennett partial sciatic nerve ligation model, cold allodynia; type: in vivo, rat; settings: osmotic minipump 0.1 mg/hr/kg for four days; during treatment and more than three weeks following pump removal
Method: The α-2B/C selective agonist Compound 8 was tested in a second rat nerve injury model of neuropathic pain, the Bennett partial sciatic nerve ligation model. This rat model produces a peripheral mononeuropathy with disorders of pain sensation similar to those seen in man (Bennett and Xie, Pain 33:87-107 (1988)). In the Bennett model, nerve injury is created by loosely tying constrictive ligatures around the sciatic nerve, causing degeneration of nerve distal to the constriction. Allodynia and hyperalgesia are produced by the constriction injury in addition to spontaneous pain (Bennett and Xie, supra, 1988). In particular, cold allodynia, the sensation of pain from cold stimuli, is one manifestation of altered pain sensation: Bennett model animals frequently lift the paw of the surgical limb off the cold surface, in contrast to control animals.
Bennett surgeries of about 20 minute duration were performed as follows. […]
Chronic drug administration was achieved via an osmotic minipump, which was implanted subcutaneously on the back of the rat one week after the Bennett surgery as described above. […] To assess response to thermal stimuli, rats were placed under a clear plastic chamber (18 cm×29 cm×12.5 cm) on a chilled (0-4° C.) metal floor, which is not noxious to a normal animal, and the time that the surgical paw was raised off of the cold floor recorded over a 5 minute period. […]

rat α-2B (RNG gene) = biological target: T1, rat α-2B (RNG gene) (Rattus norvegicus, UniProt P19328); assay: RSAT assay, α-2B receptor; type: cell-based
T1 construct: expressed in transfected cells; host or cells: NIH-3T3
T1 sequence (P19328 1-453): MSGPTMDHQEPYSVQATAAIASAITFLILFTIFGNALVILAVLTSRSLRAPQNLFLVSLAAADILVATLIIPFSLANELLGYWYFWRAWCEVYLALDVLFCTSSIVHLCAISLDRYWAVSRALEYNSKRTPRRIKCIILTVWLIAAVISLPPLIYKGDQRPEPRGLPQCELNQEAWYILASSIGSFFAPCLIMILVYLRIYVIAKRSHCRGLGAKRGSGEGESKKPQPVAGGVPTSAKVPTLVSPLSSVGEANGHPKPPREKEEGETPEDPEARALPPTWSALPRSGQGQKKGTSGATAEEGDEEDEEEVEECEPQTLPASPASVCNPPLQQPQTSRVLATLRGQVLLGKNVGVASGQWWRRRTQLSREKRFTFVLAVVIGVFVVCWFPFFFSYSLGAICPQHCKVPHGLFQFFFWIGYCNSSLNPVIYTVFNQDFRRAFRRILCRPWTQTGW
Source text: Agonist and antagonist activity, including selectivity and specificity, can be characterized using any of a variety of routine assays, including, without limitation, Receptor Selection and Amplification Technology (RSAT) assays (Messier et al., Pharmacol. Toxicol. 76:308-11 (1995); Conklin et al., Nature 363:274-6 (1993)); cyclic AMP assays (Shimizu et al., J. Neurochem. 16:1609-1619 (1969)); and cytosensor microphysiometry assays (Neve et al., J. Biol. Chem. 267:25748-25753 (1992)). Such assays generally are performed using cells that naturally express only a single α-adrenergic receptor subtype, or using transfected cells expressing a single recombinant α-adrenergic receptor subtype. The adrenergic receptor can be a human receptor or homolog thereof having a similar pharmacology. As disclosed herein, RSAT assays were performed using cells transiently transfected with human α-2A (c10 gene); rat α-2B (RNG gene); human α-2C (c4 gene); bovine α-1A; hamster α-1B; and rat α-1D.
The RSAT assay measures receptor-mediated loss of contact inhibition resulting in selective proliferation of receptor-containing cells in a mixed population of confluent cells. The increase in cell number is assessed with an appropriate detectable marker gene such as β-galactosidase, if desired, in a high throughput or ultra high throughput assay format. Receptors that activate the G protein, Gq, elicit the proliferative response. α-adrenergic receptors, which normally couple to Gi, activate the RSAT response when coexpressed with a hybrid Gq protein containing a Gi receptor recognition domain, designated Gq/i5.
As an example, an RSAT assay can be performed essentially as follows. NIH-3T3 cells are plated at a density of 2×10^6 cells in 15 cm dishes and maintained in Dulbecco's modified Eagle's medium supplemented with 10% calf serum. One day later, cells are cotransfected by calcium phosphate precipitation with mammalian expression plasmids encoding p-SV-β-galactosidase (5-10 μg), receptor (1-2 μg) and G protein (1-2 μg). Carrier DNA, for example 40 μg salmon sperm DNA, also can be included to increase transfection efficiency. Fresh media is added on the following day; one to two days later, cells are harvested and frozen in 50 assay aliquots. Transfected cells are thawed, and 100 μl of cells added to 100 μl aliquots of compound to be tested, with various concentrations assayed in triplicate, for example, in 96-well plates. Incubation continues for 72 to 96 hours at 37°. After washing with phosphate-buffered saline, β-galactosidase activity is determined by adding 200 μl of chromogenic substrate (3.5 mM O-nitrophenyl-β-D-galactopyranoside/0.5% NP-40 in phosphate buffered saline), incubating overnight at 30°, and measuring optical density at 420 nm. The absorbancy is a measure of enzyme activity, which depends on cell number and reflects receptor-mediated cell proliferation. The EC50 and maximal effect (efficacy) of each drug at each receptor is determined.

α-2A = biological target: T2, α-2A (Homo sapiens, UniProt P08913); assay: Ki at α-2A; type: binding
T2 sequence (P08913 1-465): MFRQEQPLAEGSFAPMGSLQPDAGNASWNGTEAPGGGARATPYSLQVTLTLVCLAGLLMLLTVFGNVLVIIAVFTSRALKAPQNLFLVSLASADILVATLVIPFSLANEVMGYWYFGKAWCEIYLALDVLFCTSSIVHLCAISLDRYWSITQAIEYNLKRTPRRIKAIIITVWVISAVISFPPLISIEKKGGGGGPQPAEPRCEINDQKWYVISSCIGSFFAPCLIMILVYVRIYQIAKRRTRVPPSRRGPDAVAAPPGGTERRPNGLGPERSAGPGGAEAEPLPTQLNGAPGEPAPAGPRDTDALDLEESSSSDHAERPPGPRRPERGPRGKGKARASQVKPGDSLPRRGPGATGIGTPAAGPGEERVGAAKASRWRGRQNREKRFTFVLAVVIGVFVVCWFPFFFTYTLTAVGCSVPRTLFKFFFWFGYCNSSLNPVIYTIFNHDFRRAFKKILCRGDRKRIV

[4] = subcutaneous osmotic minipump 0.1 mg/kg/hour, seven days

OCCNC(=S)NCc1cccc(Cl)c1F [Compound 8]
plasma drug level, day 10 ([1]; day 10 following pump insertion): minimal drug levels were detected
plasma drug level, day 14 ([1]; day 14 following pump insertion): no drug remained in the plasma
EMG response, non-sensitized control rats ([2]; 100 ug/kg/hr subcutaneous minipump, 7 days): did not change significantly from pre-treatment levels
pain (EMG intensity) in sensitized rats after treatment ([2]; 100 ug/kg/hr subcutaneous minipump, 7 days, CRD 20-80 mm Hg): 0 to 1.5
increased EMG response in sensitized rats ([2]; 100 ug/kg/hr subcutaneous minipump, 7 days, during and following treatment): completely alleviated
return of colorectal allodynia and hyperalgesia ([2]; 4 weeks following cessation of drug treatment): did not return during the time period tested
analgesic effect in α-2B knockout mice [3]: failed to show analgesic activity
allodynia during follow-up testing (Chung model rats; after oral 0.3 mg/kg three times a day for three days): allodynia did not increase during a more than three week period of follow-up testing
allodynia on the morning of day 4 (Chung model rats; oral 0.3 mg/kg three times a day for three days): allodynia was dramatically reduced
allodynia prior to the first dose of the morning, days 2 and 3 (Chung model rats; oral 0.3 mg/kg three times a day for three days, about 14 hours after the last dose): complete tactile allodynia
reversal of allodynia (Chung model rats; oral gavage, three doses of 0.3 mg/kg per day for three consecutive days): 70-80%
allodynia alleviated during the period of drug treatment (Chung model rats; [4]): 90-100%
persistence of analgesic effects after treatment (Chung model rats; [4]): continued for over a month after treatment was concluded
cold allodynia (Bennett model rats): completely alleviated

c1nc(CC2CCc3sccc3C2)c[nH]1 (stereo not shown) [Compound 13]
efficacy at α-2B relative to brimonidine (rat α-2B (RNG gene)): about 40%
Ki (α-2A): ~80 pM
